In assay [1] the target is T1, Progesterone receptor (Homo sapiens, UniProt P06401).
T1 sequence (P06401 whole entry): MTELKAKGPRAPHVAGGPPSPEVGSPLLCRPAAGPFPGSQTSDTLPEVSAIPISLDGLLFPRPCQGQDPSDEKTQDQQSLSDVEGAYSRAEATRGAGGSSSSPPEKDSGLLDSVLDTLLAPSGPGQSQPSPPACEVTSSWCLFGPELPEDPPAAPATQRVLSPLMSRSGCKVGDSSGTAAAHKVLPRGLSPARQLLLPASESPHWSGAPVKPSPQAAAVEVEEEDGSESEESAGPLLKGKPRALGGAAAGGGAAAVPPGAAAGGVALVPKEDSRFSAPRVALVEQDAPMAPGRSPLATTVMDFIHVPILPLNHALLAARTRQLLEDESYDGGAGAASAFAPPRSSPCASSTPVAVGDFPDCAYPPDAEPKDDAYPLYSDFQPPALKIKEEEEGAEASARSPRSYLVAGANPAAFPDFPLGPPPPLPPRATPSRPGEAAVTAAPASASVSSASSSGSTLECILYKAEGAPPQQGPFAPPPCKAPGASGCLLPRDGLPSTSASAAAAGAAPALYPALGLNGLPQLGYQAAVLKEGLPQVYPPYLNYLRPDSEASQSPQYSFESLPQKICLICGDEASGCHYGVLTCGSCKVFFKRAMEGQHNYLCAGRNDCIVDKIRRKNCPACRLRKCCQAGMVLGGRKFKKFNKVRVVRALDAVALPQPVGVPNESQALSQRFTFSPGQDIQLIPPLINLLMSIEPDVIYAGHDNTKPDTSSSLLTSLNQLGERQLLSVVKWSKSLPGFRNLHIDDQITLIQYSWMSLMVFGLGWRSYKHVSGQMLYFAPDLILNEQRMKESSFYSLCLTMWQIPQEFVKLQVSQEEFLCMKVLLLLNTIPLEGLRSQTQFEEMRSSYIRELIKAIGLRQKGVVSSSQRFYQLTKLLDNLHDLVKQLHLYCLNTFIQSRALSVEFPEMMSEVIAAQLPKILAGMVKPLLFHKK
Put plainly: Antagonist activity at progesterone receptor in human T47D cells assessed as inhibition of progesterone-induced alkaline phosphatase activity. The assay is classed as functional, cell-based.

The target of assay [2] is T1, Progesterone receptor. Put plainly: Antagonist activity at human progesterone receptor expressed in CHO cells assessed as […] luciferase activity by reporter gene assay. The assay is classed as functional, cell-based.
Assay [3] addresses T2, Progesterone receptor (Homo sapiens) (UniProt P06401).
T2 sequence (whole entry): T1 sequence (P06401 whole entry)
The experiment in a line: Agonist activity at progesterone receptor in human T47D cells assessed as induction of alkaline phosphatase activity.

Assay [4] addresses T2, Progesterone receptor (Homo sapiens). The experiment in a line: Agonist activity at human progesterone receptor expressed in CHO cells assessed as […] luciferase activity by reporter gene assay. The assay is classed as functional, cell-based.
Assay [5] has the same target. Put plainly: Antagonist activity at progesterone receptor in human T47D cells assessed as inhibition of progesterone-induced alkaline phosphatase activity at 100 uM. The assay is classed as functional, cell-based.
In assay [6] the target is T3, Estrogen receptor (Homo sapiens) (UniProt P03372).
T3 sequence (whole entry): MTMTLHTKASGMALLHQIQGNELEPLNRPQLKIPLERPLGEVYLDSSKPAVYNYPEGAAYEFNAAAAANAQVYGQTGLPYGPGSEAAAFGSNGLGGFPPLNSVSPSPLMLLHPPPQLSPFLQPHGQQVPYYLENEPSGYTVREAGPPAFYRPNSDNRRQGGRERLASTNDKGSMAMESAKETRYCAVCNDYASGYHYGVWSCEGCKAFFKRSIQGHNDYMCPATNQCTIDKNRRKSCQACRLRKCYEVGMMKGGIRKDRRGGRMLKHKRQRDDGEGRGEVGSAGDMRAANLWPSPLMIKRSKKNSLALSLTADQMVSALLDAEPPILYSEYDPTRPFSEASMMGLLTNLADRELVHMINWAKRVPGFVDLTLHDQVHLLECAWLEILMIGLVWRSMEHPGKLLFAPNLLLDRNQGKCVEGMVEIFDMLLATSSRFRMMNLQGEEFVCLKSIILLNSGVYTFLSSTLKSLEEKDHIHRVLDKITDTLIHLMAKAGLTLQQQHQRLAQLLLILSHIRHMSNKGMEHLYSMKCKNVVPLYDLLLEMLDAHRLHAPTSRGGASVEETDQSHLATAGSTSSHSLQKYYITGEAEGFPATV
The experiment in a line: Displacement of [3H]estradiol from estrogen receptor expressed in human T47D cells. The assay is classed as cell-based.

Assay [7] addresses T4, Androgen receptor (Homo sapiens) (UniProt P10275).
T4 sequence (whole entry): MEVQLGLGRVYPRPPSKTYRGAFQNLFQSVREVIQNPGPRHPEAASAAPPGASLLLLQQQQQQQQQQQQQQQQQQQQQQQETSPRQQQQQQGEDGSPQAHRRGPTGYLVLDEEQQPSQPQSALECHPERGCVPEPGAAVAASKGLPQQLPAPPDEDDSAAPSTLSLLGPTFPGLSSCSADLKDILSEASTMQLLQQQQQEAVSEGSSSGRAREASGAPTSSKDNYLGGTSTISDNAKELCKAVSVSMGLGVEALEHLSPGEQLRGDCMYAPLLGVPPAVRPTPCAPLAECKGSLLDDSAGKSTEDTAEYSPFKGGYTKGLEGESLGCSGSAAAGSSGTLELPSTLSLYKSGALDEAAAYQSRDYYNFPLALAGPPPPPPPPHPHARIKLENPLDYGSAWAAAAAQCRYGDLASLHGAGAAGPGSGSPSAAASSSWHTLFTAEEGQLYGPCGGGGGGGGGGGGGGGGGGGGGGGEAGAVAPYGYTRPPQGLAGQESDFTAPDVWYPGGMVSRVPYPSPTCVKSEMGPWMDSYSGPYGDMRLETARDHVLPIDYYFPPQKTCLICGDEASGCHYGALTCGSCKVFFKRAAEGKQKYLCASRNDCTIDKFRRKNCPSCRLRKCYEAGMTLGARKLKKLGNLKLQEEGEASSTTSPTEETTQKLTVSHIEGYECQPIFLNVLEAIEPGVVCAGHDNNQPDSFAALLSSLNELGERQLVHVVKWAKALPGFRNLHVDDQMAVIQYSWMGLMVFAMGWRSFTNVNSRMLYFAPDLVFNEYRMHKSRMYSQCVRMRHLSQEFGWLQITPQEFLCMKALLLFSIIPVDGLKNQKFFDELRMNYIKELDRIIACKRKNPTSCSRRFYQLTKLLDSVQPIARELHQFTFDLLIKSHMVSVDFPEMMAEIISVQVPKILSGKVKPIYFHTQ
Put plainly: Displacement of [3H]testosterone from androgen receptor expressed in human T47D cells. The assay is classed as cell-based.

In assay [8] the target is T2, Progesterone receptor (Homo sapiens). Put plainly: Antagonist activity at human progesterone receptor expressed in CHO cells assessed as inhibition of progesterone-induced luciferase activity by reporter gene assay at 100 uM. The assay is classed as functional, cell-based.

Calls of active or inactive are those of the source. The rule behind the calls is not given here.

Take `CC1(C)C(=O)N(c2ccc(Cl)cc2)C(=O)c2ccccc21`: the IC50 in assay [1] came to 1.3 µM; in assay [2], 3.3 µM.

Regarding `CCCn1c(=O)n(-c2ccccc2)c(=O)c2ccccc21`, the concentration for half-maximal inhibition (IC50) in assay [1] is 23 µM; in assay [2] it was 18 µM. Further, the outcome in assay [3] and in assay [4] was inactive.

`O=C1CCC(N2C(=O)c3ccc(O)cc3C2=O)C(=O)N1O` (stereo not drawn): the inhibition in assay [5] worked out at 53.7%.

As to `N#Cc1ccc(N2C(=O)c3ccccc3C3(CCCC3)C2=O)cc1`, the IC50 in assay [1] is 1.2 µM; in assay [2], 0.69 µM.

On to `C=CCC1(CC=C)C(=O)N(c2ccc(Cl)cc2)C(=O)c2ccccc21`, for which the IC50 turned out to be 0.4 µM in assay [1] and 0.85 µM in assay [2].

As to `CC1(C)C(=O)N(c2cccc(F)c2)C(=O)c2ccccc21`, the IC50 came to 10 µM in assay [1] and 11 µM in assay [2].

Regarding `O=C1c2ccccc2C2(CCCC2)C(=O)N1c1ccc(Cl)cc1`, the values for the IC50 in assay [1] and in assay [2] were 1.3 µM and 2.1 µM, respectively.

Take `O=C1CCC(N2C(=O)c3ccccc3C2=O)C(=O)N1` (stereo not drawn): in assay [5], the result was inactive.

For the compound `O=c1[nH]c2ccccc2c(=O)n1-c1ccccc1`, the inhibition in assay [5] was 34%. The outcome in assay [3] and in assay [4] was inactive.

Consider `O=C1c2ccccc2C2(CCCCC2)C(=O)N1c1ccc(Cl)cc1`, for which the IC50 in assay [1] turned out to be 1.1 µM; in assay [2], 1.5 µM.

On to `O=C1CCC(N2C(=O)c3ccccc3C2=O)C(=O)N1O` (stereo not drawn), for which the inhibition in assay [5] was found to be 42.5%.

As for `CCn1c(=O)n(-c2ccccc2)c(=O)c2ccccc21`, the figures for the IC50 in assay [1] and in assay [2] were 30 µM and 34 µM, respectively. Also, the result in assay [3] and in assay [4] was inactive.

Take `CC1(C)C(=O)N(c2ccc(F)cc2)C(=O)c2ccccc21`: the IC50 in assay [1] is 6.8 µM; in assay [2] it was 8.9 µM.

In the case of `O=C1CC(O)C(N2C(=O)c3ccccc3C2=O)C(=O)N1` (stereo not drawn), in assay [5], the inhibition is 30.6%.

With `O=C1CCC(N2C(=O)c3cccc(O)c3C2=O)C(=O)N1O` (stereo not drawn), the inhibition in assay [5] amounted to 30.7%.

Regarding `CC1(C)C(=O)N(c2cccc(Cl)c2)C(=O)c2ccccc21`, the IC50 in assay [1] was determined as 3.4 µM; in assay [2], 5.8 µM.

With `CC1(C)C(=O)N(c2ccccc2F)C(=O)c2ccccc21`, the figures for the IC50 in assay [1] and in assay [2] were 13 µM and 10 µM, respectively.

For the compound `CCCC1(CCC)C(=O)N(c2ccc(C#N)cc2)C(=O)c2ccccc21`, the figures for the IC50 in assay [1] and in assay [2] were 0.12 µM and 0.14 µM, respectively.

In the case of `CC1(C)C(=O)N(c2ccccc2)C(=O)c2ccccc21`, the IC50 worked out at 20 µM in assay [1] and 26 µM in assay [2].

As to `CC1(C)C(=O)N(c2ccccc2Cl)C(=O)c2ccccc21`, the IC50 in assay [1] was found to be 4.1 µM; in assay [2] it was 4.9 µM.

For the compound `Cc1ccc(N2C(=O)c3ccccc3C(C)(C)C2=O)cc1`, the figures for the IC50 in assay [1] and in assay [2] were 8.1 µM and 8.9 µM, respectively.

For the compound `O=c1c2ccccc2n(Cc2ccccc2)c(=O)n1-c1ccccc1`, the IC50 worked out at 11 µM in assay [1] and 15 µM in assay [2]. The result in assay [3] and in assay [4] was inactive.

For the compound `CCC1(CC)C(=O)N(c2ccc(Cl)cc2)C(=O)c2ccccc21`, the IC50 in assay [1] was 0.25 µM; in assay [2], 0.28 µM.

With `N#Cc1ccc(N2C(=O)c3ccccc3C3(CCCCC3)C2=O)cc1`, the figures for the IC50 in assay [1] and in assay [2] were 0.88 µM and 0.45 µM, respectively.

In the case of `CCC1(CC)C(=O)N(c2ccc(C#N)cc2)C(=O)c2ccccc21`, the result in assay [6] and in assay [7] was inactive. The figures for the IC50 in assay [1] and in assay [2] were 0.074 µM and 0.078 µM, respectively.

In the case of `COc1ccc(N2C(=O)c3ccccc3C(C)(C)C2=O)cc1`, the IC50 turned out to be 11 µM in assay [1] and 17 µM in assay [2].

With `O=C1Cc2ccccc2C(=O)N1c1ccccc1`, the figures for the inhibition in assay [5] and in assay [8] were 25% and 38%, respectively.

For the compound `CC1(C)C(=O)N(c2ccc(C#N)cc2)C(=O)c2ccccc21`, the results for the IC50 in assay [1] and in assay [2] were 1.6 µM and 1.8 µM, respectively.

As to `CCCC1(CCC)C(=O)N(c2ccc(Cl)cc2)C(=O)c2ccccc21`, the IC50 in assay [1] was found to be 1.1 µM; in assay [2] it was 1 µM.

With `Cn1c(=O)n(-c2ccccc2)c(=O)c2ccccc21`, the IC50 in assay [1] was determined as 84 µM. Further, the outcome in assay [3] and in assay [4] was inactive.

`O=C1CC(O)C(N2C(=O)c3ccc(O)cc3C2=O)C(=O)N1` (stereo not drawn): the inhibition in assay [5] came to 29.4%.

`C=CCC1(CC=C)C(=O)N(c2ccc(C#N)cc2)C(=O)c2ccccc21`: the IC50 came out at 0.11 µM in assay [1] and 0.15 µM in assay [2].

The values are drawn from ChEMBL document CHEMBL1155106, “Progesterone receptor antagonists with a 3-phenylquinazoline-2,4-dione/2-phenylisoquinoline-1,3-dione skeleton” (Bioorg Med Chem, 2008).
